The values that follow come from PubChem BioAssay (NCI).

Structures are written as SMILES.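 Following 48 hours of exposure in 96-well plates, responses at five concentrations were used to interpolate endpoints linearly. TGI: concentration producing complete growth inhibition.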

Some test systems named below: CAKI-1 renal; CCRF-CEM leukemia; DU-145 prostate; HCT-15 colon; IGROV1 ovarian; MDA-MB-435; MOLT-4 leukemia; NCI-H522 lung; OVCAR-4 ovarian; OVCAR-8 ovarian; SF-295 CNS; SK-MEL-2 melanoma; SK-MEL-5 melanoma; SK-OV-3 ovarian; SNB-19 CNS; T-47D breast; UO-31 renal; HOP-92 NSCLC; SR leukemia.
What all share (experiment): NCI tumour cell line growth inhibition, 48 h

On to `CCCCn1cnnc1NS(=O)(=O)c1cc(C)c(Cl)cc1SCC(=O)O`, for which the TGI in the assay on CAKI-1 renal, in the assay with CCRF-CEM leukemia, in the assay with DU-145 prostate, in the assay on HCT-15 colon, with IGROV1 ovarian and in the assay with MDA-MB-435 was > 10 µM throughout. Further, the TGI in the assay with MOLT-4 leukemia, with NCI-H522 lung, in the assay on OVCAR-4 ovarian, with OVCAR-8 ovarian, in the assay with SF-295 CNS and in the assay with SK-MEL-2 melanoma was > 10 µM each time. Further, the TGI in the assay with SK-MEL-5 melanoma, with SK-OV-3 ovarian, with SNB-19 CNS, in the assay with T-47D breast and in the assay on UO-31 renal was > 10 µM throughout.
`N=C(N)C(N=Nc1ccccc1)C(N)=O` (stereo unspecified): the TGI in the assay on CAKI-1 renal, in the assay with DU-145 prostate, with HCT-15 colon, in the assay on HOP-92 NSCLC, in the assay on IGROV1 ovarian and in the assay with MDA-MB-435 was > 100 µM throughout. Besides, the TGI with MOLT-4 leukemia, with NCI-H522 lung, in the assay on OVCAR-4 ovarian, in the assay on OVCAR-8 ovarian, with SF-295 CNS and in the assay on SK-MEL-2 melanoma was > 100 µM throughout. Also, the TGI in the assay with SK-MEL-5 melanoma, in the assay on SK-OV-3 ovarian, in the assay with SNB-19 CNS, in the assay on T-47D breast and in the assay on UO-31 renal was > 100 µM throughout.
Regarding `O=C1C=CC(=O)c2c(NCC3CC3)ccc(NCC3CC3)c21`, the TGI is > 100 µM in the assay with HCT-15 colon; > 100 µM in the assay on IGROV1 ovarian; 44.8 µM in the assay on MDA-MB-435; 44.9 µM with MOLT-4 leukemia; 15.9 µM in the assay with NCI-H522 lung; > 100 µM in the assay with OVCAR-8 ovarian. Besides, the TGI is 79.8 µM in the assay with SF-295 CNS; > 100 µM in the assay with SK-MEL-2 melanoma; 52 µM in the assay with SK-MEL-5 melanoma; > 100 µM with SNB-19 CNS; > 100 µM in the assay with SR leukemia; 65.6 µM in the assay with T-47D breast. In addition, in the assay with UO-31 renal, the TGI was > 100 µM.
Turning to `C/C(=N\NC(=S)NC1CCCC1)c1ccccn1`, the TGI in the assay with CAKI-1 renal was > 100 µM; in the assay on DU-145 prostate, > 43 µM; in the assay with HCT-15 colon, > 100 µM; in the assay on IGROV1 ovarian, > 44.1 µM; in the assay with MDA-MB-435 it was > 75.6 µM; in the assay with NCI-H522 lung, 42.4 µM. Further, the TGI with OVCAR-4 ovarian was > 100 µM; in the assay on OVCAR-8 ovarian, > 22.4 µM; with SF-295 CNS, > 43.6 µM; with SK-MEL-2 melanoma, > 100 µM; in the assay on SK-MEL-5 melanoma, 13.2 µM; in the assay with SK-OV-3 ovarian it was > 100 µM. Moreover, the figures for the TGI in the assay on SNB-19 CNS, in the assay on T-47D breast and in the assay with UO-31 renal were > 100 µM, > 23.9 µM and 22.3 µM, respectively.
Take `COc1cc2nc(-c3cccs3)nc(N3C(c4ccc(O)cc4)=NNC(=O)c4ccccc43)c2cc1OC`: the TGI was 43.9 µM with CAKI-1 renal; > 100 µM in the assay with CCRF-CEM leukemia; > 100 µM with DU-145 prostate; > 100 µM with HCT-15 colon; 97.7 µM in the assay with IGROV1 ovarian; 58.9 µM in the assay on MDA-MB-435. In addition, the TGI in the assay on NCI-H522 lung was > 100 µM; in the assay with OVCAR-4 ovarian, > 100 µM; in the assay on OVCAR-8 ovarian, > 100 µM; in the assay on SF-295 CNS it was 39.4 µM; in the assay with SK-MEL-2 melanoma, 60.5 µM; with SK-MEL-5 melanoma, > 100 µM. Further, the TGI is > 100 µM with SK-OV-3 ovarian, > 100 µM with SNB-19 CNS, > 100 µM with T-47D breast and 37.4 µM with UO-31 renal.
Regarding `N#CCC(=O)c1cc(OCc2cc(OCc3ccc(Br)cc3)cc(OCc3ccc(Br)cc3)c2)cc(OCc2cc(OCc3ccc(Br)cc3)cc(OCc3ccc(Br)cc3)c2)c1`, the TGI in the assay with CAKI-1 renal, in the assay on DU-145 prostate, with HCT-15 colon, in the assay on HOP-92 NSCLC, in the assay on MDA-MB-435 and in the assay on NCI-H522 lung was > 100 µM each time. For the same molecule, the TGI with OVCAR-4 ovarian, with SF-295 CNS, with SK-MEL-2 melanoma, with SK-MEL-5 melanoma, in the assay on SK-OV-3 ovarian and in the assay on SNB-19 CNS was > 100 µM each time. The TGI with T-47D breast and with UO-31 renal was > 100 µM throughout.
For `CC(C)C1OC2(C)OC(=N)C1(C#N)C(C#N)(C#N)C2C` (stereo unspecified), the TGI is 22.8 µM in the assay with CAKI-1 renal; 51.4 µM in the assay on CCRF-CEM leukemia; > 100 µM with DU-145 prostate; 25.3 µM in the assay with HCT-15 colon; 34.7 µM in the assay on HOP-92 NSCLC; > 100 µM in the assay on MDA-MB-435. The TGI in the assay on MOLT-4 leukemia is > 100 µM; in the assay on OVCAR-8 ovarian, 79.5 µM; with SF-295 CNS, > 100 µM; in the assay with SK-MEL-2 melanoma it was 67.7 µM; in the assay with SK-MEL-5 melanoma it was 26.6 µM; in the assay with SK-OV-3 ovarian, > 100 µM. In addition, the figures for the TGI in the assay on T-47D breast and with UO-31 renal were 33.5 µM and > 100 µM, respectively.
`COc1ccc(Cc2c(N)[nH]c(=O)n(C)c2=O)cc1`: the TGI in the assay on CAKI-1 renal, in the assay on HCT-15 colon, in the assay with HOP-92 NSCLC, with IGROV1 ovarian, in the assay on MDA-MB-435 and with NCI-H522 lung was > 100 µM each time. Also, the TGI in the assay with OVCAR-4 ovarian, in the assay with OVCAR-8 ovarian, with SF-295 CNS, in the assay with SK-MEL-2 melanoma, with SK-MEL-5 melanoma and in the assay on SK-OV-3 ovarian was > 100 µM throughout. In addition, the TGI in the assay on SNB-19 CNS, in the assay with T-47D breast and in the assay with UO-31 renal was > 100 µM in each case.
